From patent US20120220564A1, “SELECTIVE CALCIUM CHANNEL MODULATORS” (Zalicus Pharmaceuticals Ltd., priority 2009, published 2012)

Assays:
[1] = tested on: Rat SNL tactile allodynia; test: L5/L6 spinal nerve ligation (SNL) Chung pain model, tactile allodynia (von Frey); format: in vivo; settings: for % Antiallodynia (Mean ± SD): 30 mg/kg PO, n = 7-8; for anti-allodynia effects: second repetition of the study, n=9
Text: The Spinal Nerve Ligation is an animal model representing peripheral nerve injury generating a neuropathic pain syndrome. In this model experimental animals develop the clinical symptoms of tactile allodynia and hyperalgesia. L5/L6 Spinal nerve ligation (SNL) injury was induced using the procedure of Kim and Chung (Kim et al., Pain 50:355-363 (1992)) in male Sprague-Dawley rats (Harlan; Indianapolis, Ind.) weighing 200 to 250 grams.
Anaesthesia was induced with 2% isofluorane in O2 at 2 L/min and maintained with 0.5% isofluorane in O2. Rats were then shaved and aseptically prepared for surgeries. A 2 cm paraspinal incision was made at the level of L4-S2. L4/L5 was exposed by removing the transverse process above the nerves with a small rongeur. The L5 spinal nerve is the larger of the two visible nerves below the transverse process and lies closest to the spine. The L6 spinal nerve is located beneath the corner of the slope bone. A home-made glass Chung rod was used to hook L5 or L6 and a pre-made slip knot of 4.0 silk suture was placed on the tip of the rod just above the nerve and pulled underneath to allow for the tight ligation. The L5 and L6 spinal nerves were tightly ligated distal to the dorsal root ganglion. The incision was closed, and the animals were allowed to recover for 5 days.
Sham control rats underwent the same operation and handling as the experimental animals, but without SNL.
Prior to initiating drug delivery, baseline behavioural testing data is obtained. At selected times after infusion of the Test or Control Article behavioural data can then be collected again.
The assessment of tactile allodynia consisted of measuring the withdrawal threshold of the paw ipsilateral to the site of nerve injury in response to probing with a series of calibrated von Frey filaments (innocuous stimuli). Animals were acclimated to the suspended wire-mesh cages for 30 min before testing. Each von Frey filament was applied perpendicularly to the plantar surface of the ligated paw of rats for 5 sec. A positive response was indicated by a sharp withdrawal of the paw. For rats, the first testing filament is 4.31. Measurements were taken before and after administration of test articles. […] The protocol was repeated until three changes in behaviour were determined (“up and down” method) (Chaplan et al., J. Neurosci. Methods 53:55-63 (1994)). The 50% paw withdrawal threshold was determined as (10^[Xf+kδ])/10,000, where Xf=the value of the last von Frey filament employed, k=Dixon value for the positive/negative pattern, and δ=the logarithmic difference between stimuli. The cut-off values for rats were no less than 0.2 g and no higher than 15 g (5.18 filament); for mice no less than 0.03 g and no higher than 2.34 g (4.56 filament). A significant drop of the paw withdrawal threshold compared to the pre-treatment baseline is considered tactile allodynia.

6 Hz psychomotor seizure = 6 Hz psychomotor seizure model of partial epilepsy; format: in vivo, mice; parameters: concentration or dose not given beside the values
Text: Compounds can also be evaluated for the protection against seizures induced by a 6 Hz, 0.2 ms rectangular pulse width of 3 s duration, at a stimulus intensity of 32 mA (CC97) applied to the cornea of male CF1 mice (20-30 g) according to procedures described by Barton et al, “Pharmacological Characterization of the 6 Hz Psychomotor Seizure Model of Partial Epilepsy,” Epilepsy Res. 47(3):217-27 (2001). Seizures are characterised by the expression of one or more of the following behaviours: stun, forelimb clonus, twitching of the vibrissae and Straub-tail immediately following electrical stimulation.

[2] = tested on: minimal muscular or neurological impairment (rotarod); test: Mouse rotarod assay; format: in vivo, mice
α1G (CaV 3.1) = target: T1, α1G (CaV 3.1) (Homo sapiens, UniProt O43497); test: T-type calcium channel block, whole cell patch clamp; format: cell-based; settings: HEK cells, mainly non-inactivated protocol; values above 10,000 nM represented as 10000
T1 construct: expressed in transfected cells; host or cells: HEK 293
Summary of the method: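 HEK293 cells stably expressing human T-type channels, whole-cell patch clamp; compounds in external solution with 0.1-0.01% DMSO, applied by gravity. Mainly non-inactivating protocol: holding −110 mV, 1 s pre-pulse −100 mV, 50 ms test pulse −40 mV (inactivated protocol uses ~−85 mV pre-pulse); IC50 reported.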

T1 sequence (O43497 whole entry): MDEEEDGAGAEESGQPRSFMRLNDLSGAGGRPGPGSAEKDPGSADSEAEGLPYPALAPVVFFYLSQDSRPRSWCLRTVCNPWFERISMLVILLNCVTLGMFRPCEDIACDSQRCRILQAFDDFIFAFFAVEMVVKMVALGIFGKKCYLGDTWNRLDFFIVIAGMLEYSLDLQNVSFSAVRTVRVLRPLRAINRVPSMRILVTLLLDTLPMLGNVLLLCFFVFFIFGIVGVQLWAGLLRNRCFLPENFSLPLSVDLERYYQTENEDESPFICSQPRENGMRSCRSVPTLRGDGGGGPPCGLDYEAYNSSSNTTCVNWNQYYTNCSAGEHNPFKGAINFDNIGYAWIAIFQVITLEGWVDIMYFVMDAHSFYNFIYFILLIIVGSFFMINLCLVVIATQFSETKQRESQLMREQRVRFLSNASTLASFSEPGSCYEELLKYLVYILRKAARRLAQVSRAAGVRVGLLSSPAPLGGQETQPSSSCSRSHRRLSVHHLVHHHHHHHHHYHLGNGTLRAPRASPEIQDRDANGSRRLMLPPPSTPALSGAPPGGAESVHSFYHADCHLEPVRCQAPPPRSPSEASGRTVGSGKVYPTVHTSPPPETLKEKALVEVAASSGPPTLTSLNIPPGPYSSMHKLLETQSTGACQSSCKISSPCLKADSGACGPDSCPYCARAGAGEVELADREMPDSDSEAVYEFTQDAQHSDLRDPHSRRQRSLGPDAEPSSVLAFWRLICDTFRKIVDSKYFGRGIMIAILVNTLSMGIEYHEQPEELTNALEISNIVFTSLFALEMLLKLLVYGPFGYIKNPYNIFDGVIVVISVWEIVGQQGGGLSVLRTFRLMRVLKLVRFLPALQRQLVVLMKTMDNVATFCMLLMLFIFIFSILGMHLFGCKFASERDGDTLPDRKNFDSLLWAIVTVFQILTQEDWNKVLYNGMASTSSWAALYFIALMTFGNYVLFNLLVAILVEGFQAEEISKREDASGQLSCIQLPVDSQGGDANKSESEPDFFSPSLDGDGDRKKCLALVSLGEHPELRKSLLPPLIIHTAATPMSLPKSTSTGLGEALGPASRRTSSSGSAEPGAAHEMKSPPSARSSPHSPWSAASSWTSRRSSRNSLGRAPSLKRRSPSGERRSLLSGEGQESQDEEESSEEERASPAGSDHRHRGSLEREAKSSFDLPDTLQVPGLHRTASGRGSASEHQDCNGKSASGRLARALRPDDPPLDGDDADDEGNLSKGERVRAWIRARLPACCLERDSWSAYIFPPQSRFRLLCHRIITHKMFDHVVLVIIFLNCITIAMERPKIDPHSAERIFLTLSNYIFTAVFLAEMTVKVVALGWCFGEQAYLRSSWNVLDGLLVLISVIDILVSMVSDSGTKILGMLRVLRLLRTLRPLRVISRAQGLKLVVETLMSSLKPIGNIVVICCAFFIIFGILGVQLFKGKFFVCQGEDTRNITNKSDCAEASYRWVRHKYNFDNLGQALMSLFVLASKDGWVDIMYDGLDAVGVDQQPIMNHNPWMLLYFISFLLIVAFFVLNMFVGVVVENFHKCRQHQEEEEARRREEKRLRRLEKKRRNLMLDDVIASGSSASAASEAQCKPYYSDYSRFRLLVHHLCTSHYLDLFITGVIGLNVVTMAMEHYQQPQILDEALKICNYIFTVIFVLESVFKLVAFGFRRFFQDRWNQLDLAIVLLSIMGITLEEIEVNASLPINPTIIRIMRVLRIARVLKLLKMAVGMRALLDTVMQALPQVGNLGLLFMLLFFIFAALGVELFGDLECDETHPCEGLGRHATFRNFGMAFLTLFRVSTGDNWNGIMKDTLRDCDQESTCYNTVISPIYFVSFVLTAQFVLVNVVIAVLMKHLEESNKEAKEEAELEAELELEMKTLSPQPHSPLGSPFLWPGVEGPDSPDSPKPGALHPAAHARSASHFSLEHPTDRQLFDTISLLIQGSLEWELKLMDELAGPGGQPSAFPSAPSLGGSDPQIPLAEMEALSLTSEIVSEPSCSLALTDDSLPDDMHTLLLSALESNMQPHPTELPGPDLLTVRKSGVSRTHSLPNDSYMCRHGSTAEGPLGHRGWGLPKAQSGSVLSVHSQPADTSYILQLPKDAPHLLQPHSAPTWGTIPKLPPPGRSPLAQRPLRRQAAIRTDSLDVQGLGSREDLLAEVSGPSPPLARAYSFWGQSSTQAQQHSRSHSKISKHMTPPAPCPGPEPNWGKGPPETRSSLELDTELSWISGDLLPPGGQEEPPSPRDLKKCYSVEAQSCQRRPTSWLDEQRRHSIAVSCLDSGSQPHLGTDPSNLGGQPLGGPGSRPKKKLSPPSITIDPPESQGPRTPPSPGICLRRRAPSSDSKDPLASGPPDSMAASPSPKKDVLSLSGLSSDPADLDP

Compound	Rat SNL tactile allodynia (% antiallodynia) ([1]; 1 hr)	Rat SNL tactile allodynia (% antiallodynia) ([1]; 2 hr)	Rat SNL tactile allodynia (% antiallodynia) ([1]; 4 hr)	Epilepsy 6 Hz (% Protected) (6 Hz psychomotor seizure; 0.25 hr)	Epilepsy 6 Hz (% Protected) (6 Hz psychomotor seizure; 0.5 hr)	Epilepsy 6 Hz (% Protected) (6 Hz psychomotor seizure; 1 hr)	Epilepsy 6 Hz (% Protected) (6 Hz psychomotor seizure; 2 hr)	Epilepsy 6 Hz (% Protected) (6 Hz psychomotor seizure; 4 hr)	Rotarod Assay (% impaired) ([2]; 0.25 hr)	Rotarod Assay (% impaired) ([2]; 0.5 hr)	Rotarod Assay (% impaired) ([2]; 1 hr)	Rotarod Assay (% impaired) ([2]; 2 hr)	Rotarod Assay (% impaired) ([2]; 4 hr)	IC50 (α1G (CaV 3.1))	% Antiallodynia (Mean ± SD) ([1]; 1 h)	% Antiallodynia (Mean ± SD) ([1]; 4 h)	anti-allodynia effects ([1]; 1 hr)	anti-allodynia effects ([1]; 2 hr)	anti-allodynia effects ([1]; 4 hr)
N-(3,5- bis(trifluoromethyl) phenyl)-2-(1- (piperidine-3- carbonyl)piperidin-4- yl)acetamide [Compound 2]	38%	44%	27%	50%	50%	100%	33%	0%	25%	50%	100%	100%	50%						
N[C@@H]1CCCC[C@H]1C(=O)N1CCC(CC(=O)Nc2cc(C(F)(F)F)cc(C(F)(F)F)c2)CC1 (racemic) [Compound 3, trans-2-(1-(2-aminocyclohexanecarbonyl)piperidin-4-yl)-N-(3,5-bis(trifluoromethyl)phenyl)acetamide]				100%	75%	100%	0%	50%	0%	75%	100%	75%	50%	> 10 µM	36 ± 19 %	4 ± 8%	68±12%	76±6%	42±14%
